Source: ChEMBL document CHEMBL1150138, “The isolation of two new chromone derivatives from the New Zealand fungus Tolypocladium extinguens” (2002)
Converted amounts (≈) assume the structure as drawn. The source made the active and inactive calls. The calls are words filed in the database; no cut-off is given here.

Key:
Escherichia coli = assay: Antimicrobial activity against Escherichia coli by disk susceptibility test; format: functional, organism-based
Bacillus subtilis = assay: Antimicrobial activity against Bacillus subtilis by disk susceptibility test; format: functional, organism-based
Pseudomonas aeruginosa = assay: Antimicrobial activity against Pseudomonas aeruginosa by disk susceptibility test; format: functional, organism-based
Candida albicans = assay: Antimicrobial activity against Candida albicans by disk susceptibility test; format: functional, organism-based
[1] = tested on: Trichophyton mentagrophytes; assay: Antimicrobial activity against Trichophyton mentagrophytes by disk susceptibility test; format: functional, organism-based
Amorphotheca resinae = assay: Antimicrobial activity against Cladosporium resinae by disk susceptibility test; format: functional, organism-based
P388 = assay: Cytotoxicity against mouse P388 cells after 1 to 11 days by MTT assay; format: functional; details: read-out: ID50 (the source's name)

SMILES | Activity (Escherichia coli) | Activity (Bacillus subtilis) | Activity (Pseudomonas aeruginosa) | Activity (Candida albicans) | Activity [1] | Activity (Amorphotheca resinae) | IC50 (P388)
COCc1c(OC)cc2oc(CO)cc(=O)c2c1O | inactive | inactive | inactive | inactive | inactive | inactive | 
COc1cc2oc(C)cc(=O)c2c(O)c1CO | inactive | inactive | inactive | inactive | inactive | inactive | 
COCc1c(OC)cc2oc(C)cc(=O)c2c1O | inactive | inactive | inactive | inactive | inactive | inactive | 6 µg/mL (≈ 24 µM)
